The record followed here is patent US20240116922A1, “IMIDAZO[1,2-A]PYRIDINE DERIVATIVES AS IRAK4 INHIBITORS AND THEIR USE IN THE TREATMENT OF DISEASE” (BIOGEN MA INC., priority 2020, published 2024).

What is called IC50 is the midpoint of a concentration-inhibition curve. The efflux ratio is a quotient of directional permeabilities that is used to spot active efflux. The solubility (kinetic) is the concentration staying in solution when a stock, usually in DMSO, is diluted into the medium.

Data set [1] deals with Human MDR1 transfected MDCK cells (Homo sapiens (Human), UniProt P08183). Kind of data set: MDR1-MDCK assay. To be noted: 1 μM test concentration, 120 minutes incubation.
Chain of Human MDR1 transfected MDCK cells (P08183 whole entry): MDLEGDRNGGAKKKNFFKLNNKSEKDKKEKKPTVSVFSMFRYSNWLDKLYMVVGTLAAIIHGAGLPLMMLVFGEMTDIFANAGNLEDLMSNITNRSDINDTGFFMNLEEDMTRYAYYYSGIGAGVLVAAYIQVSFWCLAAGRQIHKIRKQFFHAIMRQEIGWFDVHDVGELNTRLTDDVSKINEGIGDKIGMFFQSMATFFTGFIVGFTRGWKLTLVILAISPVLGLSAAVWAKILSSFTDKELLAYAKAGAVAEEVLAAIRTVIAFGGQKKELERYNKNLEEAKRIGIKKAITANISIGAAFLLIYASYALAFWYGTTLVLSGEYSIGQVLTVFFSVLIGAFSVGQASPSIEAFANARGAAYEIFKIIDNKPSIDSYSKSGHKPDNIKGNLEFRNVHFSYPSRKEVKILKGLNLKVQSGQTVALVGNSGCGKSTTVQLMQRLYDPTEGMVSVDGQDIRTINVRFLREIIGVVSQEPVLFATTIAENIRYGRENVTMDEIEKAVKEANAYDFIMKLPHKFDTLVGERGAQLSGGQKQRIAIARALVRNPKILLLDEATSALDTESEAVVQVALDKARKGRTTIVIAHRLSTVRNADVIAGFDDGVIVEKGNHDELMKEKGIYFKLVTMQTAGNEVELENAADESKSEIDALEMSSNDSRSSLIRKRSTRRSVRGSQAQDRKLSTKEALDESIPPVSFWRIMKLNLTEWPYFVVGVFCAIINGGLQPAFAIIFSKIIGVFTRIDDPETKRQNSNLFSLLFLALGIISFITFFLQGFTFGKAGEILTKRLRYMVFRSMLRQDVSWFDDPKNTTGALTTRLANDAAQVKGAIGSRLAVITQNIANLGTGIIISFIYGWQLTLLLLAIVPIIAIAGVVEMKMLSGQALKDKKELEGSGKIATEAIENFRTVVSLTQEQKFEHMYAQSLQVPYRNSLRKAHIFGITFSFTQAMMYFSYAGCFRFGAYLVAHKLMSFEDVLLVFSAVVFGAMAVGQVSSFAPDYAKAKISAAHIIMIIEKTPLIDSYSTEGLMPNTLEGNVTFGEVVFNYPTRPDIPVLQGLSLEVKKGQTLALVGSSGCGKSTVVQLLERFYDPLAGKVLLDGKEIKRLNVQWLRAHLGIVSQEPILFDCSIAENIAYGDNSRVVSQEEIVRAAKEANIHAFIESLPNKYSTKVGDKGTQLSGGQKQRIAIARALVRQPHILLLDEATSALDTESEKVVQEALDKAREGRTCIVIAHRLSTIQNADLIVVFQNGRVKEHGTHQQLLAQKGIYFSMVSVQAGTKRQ
Data set [2] in a line: Kinetic solubility assay (CLND), pH 6.8. It counts as physicochemical. The following applies: potassium phosphate buffer pH 6.8, 2% DMSO, 24 hours at ambient temperature; for solubility kinetic at 24 h: aqueous buffer, kinetic from dmso stock.
Data set [3] deals with IRAK4 (Homo sapiens (Human), UniProt Q9NWZ3). In words: IRAK4 MSD biochemical assay (2-hour 1 mM ATP). To be noted: 0.1 nM IRAK4, 1 mM ATP, 2 hour at room temperature.
Chain of IRAK4 (Q9NWZ3 whole entry, the tested form may be a part): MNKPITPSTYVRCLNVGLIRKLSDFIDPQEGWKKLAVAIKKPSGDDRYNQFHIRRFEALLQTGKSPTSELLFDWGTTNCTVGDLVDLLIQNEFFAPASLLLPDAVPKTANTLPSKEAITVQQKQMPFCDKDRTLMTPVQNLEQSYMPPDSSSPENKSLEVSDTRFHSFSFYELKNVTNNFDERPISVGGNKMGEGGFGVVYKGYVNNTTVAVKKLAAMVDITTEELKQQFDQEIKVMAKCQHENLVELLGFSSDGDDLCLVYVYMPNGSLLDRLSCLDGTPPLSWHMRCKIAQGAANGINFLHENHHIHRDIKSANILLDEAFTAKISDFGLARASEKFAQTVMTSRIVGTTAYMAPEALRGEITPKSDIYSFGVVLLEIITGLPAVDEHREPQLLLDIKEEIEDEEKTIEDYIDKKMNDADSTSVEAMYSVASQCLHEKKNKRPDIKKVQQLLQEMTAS
A short description of data set [4]: Kpuu assay (in vivo brain-to-plasma unbound partition). To be noted: brain (unbound) versus plasma (unbound); intravenous infusion 4 to 24 h; unbound brain/plasma ratio; read-out: Brain Kpu, u.
Procedure: For the brain-to-plasma partition coefficient (Kp) evaluation, a dosing solution was intravenously infused into animals at a constant flow rate for 4 to 24 h. Blood samples were serially collected during infusion, and CSF and brain samples were harvested at the end of infusion.
Tissue samples were typically homogenized in phosphate buffer saline (PBS) using a bead ruptor.
CSF samples were typically diluted with 8% BSA in PBS to prevent from non-specific binding. Artificial CSF (aCSF) is used as the surrogate matrix.
Calibration curves were prepared by spiking the analyte(s) into blank matrices, which were processed together with plasma, tissue homogenate and/or CSF samples by protein precipitation using a proper organic solvent (e.g. acetonitrile and methanol) containing generic analogue internal standards (e.g. verapamil, chrysin and glyburide). Matrix matching was used when analyzing multiple matrices in the same run. Samples above the upper limit of quantitation (ULOQ) needed to be diluted into the calibration range using either a pre-extraction or post-extraction dilution approach.
Processed samples were analyzed by LC-MS/MS using a proper method performing within the acceptable sensitivity, selectivity, precision and accuracy. For an analytical run to be accepted, over 75% of the calibration standards in the dual calibration curves needed to be within 20% of the nominal concentrations.
Brain concentrations were compared against plasma concentrations at the corresponding timepoint for the calculation of partition coefficient (Kp).
Unbound drug partition coefficient (Kpuu), defined as the ratio of unbound drug partition across the blood-brain barrier, was calculated using the equation below:
[formula] • Cb: measured total drug concentration in brain • Fub: unbound drug fraction in brain • Cp: measured total drug concentration in plasma • Fup: unbound drug fraction in plasma
The unbound fraction of the test compound was determined based on the protocols described below.
% Free=(PAR of buffer side/PAR of plasma side)*100 • PAR—Peak area ratio (PAR) • Fu % Free. 100 • Fu=fraction unbound
For data set [5], the target named is MDR1 (Homo sapiens (Human), UniProt P08183). Kind of data set: in vitro. The following applies: MDCK-MDR1.
Chain of MDR1 (P08183 whole entry): as the sequence (P08183 whole entry) above

Molecules are shown by their SMILES. Converted amounts (≈) assume the structure as drawn. Where a name gives a salt, the structure may show the parent alone.

On to `O=C(Nc1cccn(C2CC2)c1=O)c1cn2cc(C34COC(C3)C4)nc2nc1OC1CCC1` [Example 36, 2-(2-oxabicyclo[2.1.1]hexan-4-yl)-7-cyclobutoxy-N-(1-cyclopropyl-2-oxo-1,2-dihydropyridin-3-yl)imidazo[1,2-a]pyrimidine-6-carboxamide], for which, in data set [1], the “MDR1-MDCK Efflux Ratio” value came out at 6.4. In data set [2], the “pH 6.8 Solubility (ug/mL)” value came out at 20.8 ug/mL. Also, it took 1.7 nM to reach half-maximal inhibition in data set [3] (IC50).

With `CC(C)Oc1nc2nc([C@@]34CC[C@@](C)(C3)OC4)cn2cc1C(=O)Nc1cccn(C)c1=O` [Comparator 4D, 7-isopropoxy-N-(1-methyl-2-oxo-1,2-dihydropyridin-3-yl)-2-((1S,4R)-1-methyl-2-oxabicyclo[2.2.1]heptan-4-yl)imidazo[1,2-a]pyrimidine-6-carboxamide, reference compound], the Kpuu (unbound brain-to-plasma partition coefficient) in data set [4] was determined as 0.2. In addition, the efflux ratio at 120 min, 1 μM in data set [5] came to 5.6. The compound also showed a kinetic solubility at 24 h in data set [2] of 58.8 µg/mL (≈ 134 µM). This compound returned an IC50 in data set [3] of 0.5 nM.

With `CC(C)Oc1cc2nc([C@]34CC[C@](CF)(C3)OC4)cn2cc1C(=O)Nc1cccn(C2CC2)c1=O` (single isomer, unassigned) [Example 8], in data set [4], the Kpuu (unbound brain-to-plasma partition coefficient) amounted to 0.49. Also, the efflux ratio at 120 min, 1 μM in data set [5] came out at 5.4. The kinetic solubility at 24 h in data set [2] stood at 75.9 µg/mL (≈ 158 µM). For the same compound, the IC50 in data set [3] was determined as 0.3 nM.

With `CC(C)Oc1nc2nc(C34CCC(C)(CC3)OC4)cn2cc1C(=O)Nc1ccn(C)n1` [Comparator 6C, 7-isopropoxy-N-(1-methyl-1H-pyrazol-3-yl)-2-(1-methyl-2-oxabicyclo[2.2.2]octan-4-yl)imidazo[1,2-a]pyrimidine-6-carboxamide, reference compound], in data set [4], the Kpuu (unbound brain-to-plasma partition coefficient) is 0.2. Further, the efflux ratio at 120 min, 1 μM in data set [5] came out at 1.8. In addition, the solubility (kinetic) at 24 h in data set [2] stood at 48.5 µg/mL (≈ 114 µM). The IC50 in data set [3] was 0.9 nM.

With `CC(C)Oc1cc2nc([C@]34CC[C@](C)(C3)OC4)cn2cc1C(=O)Nc1cccn([C@H]2C[C@@H]2F)c1=O` (single isomer, unassigned) [Example 119], the Kpuu (unbound brain-to-plasma partition coefficient) in data set [4] turned out to be 0.73. In addition, the efflux ratio at 120 min, 1 μM in data set [5] stood at 4.2. The compound further gave a solubility (kinetic) at 24 h in data set [2] of 79 µg/mL (≈ 164 µM). Further, inhibition in data set [3] was half-maximal at 0.7 nM (IC50).

Consider `CC(C)Oc1nc2nc(C34CCC(C)(CC3)OC4)cn2cc1C(=O)Nc1cccn(C2CC2)c1=O` [Example 77, N-(1-cyclopropyl-2-oxo-1,2-dihydropyridin-3-yl)-7-isopropoxy-2-(1-methyl-2-oxabicyclo[2.2.2]octan-4-yl)imidazo[1,2-a]pyrimidine-6-carboxamide], for which, in data set [4], the Kpuu (unbound brain-to-plasma partition coefficient) is 0.61. For the same compound, in data set [5], the efflux ratio at 120 min, 1 μM is 2.7. Further, the solubility (kinetic) at 24 h in data set [2] turned out to be 7.2 µg/mL (≈ 15.1 µM). Further, in data set [3], the IC50 turned out to be 0.3 nM.

On to `C[C@@]12CC[C@@](c3cn4cc(C(=O)Nc5cccn(C6CC6)c5=O)c(OC5CCC5)cc4n3)(CO1)C2` (single isomer, unassigned) [Example 25], for which, in data set [4], the Kpuu (unbound brain-to-plasma partition coefficient) worked out at 0.36. For the same compound, in data set [5], the efflux ratio at 120 min, 1 μM stood at 3.2. For the same compound, in data set [2], the solubility (kinetic) at 24 h worked out at 66.7 µg/mL (≈ 141 µM). Moreover, half-maximal inhibition in data set [3] (IC50) required 0.3 nM.

Take `CC(C)Oc1nc2nc([C@]34CC[C@](C)(C3)OC4)cn2cc1C(=O)Nc1cccn([C@H]2C[C@H]2C)c1=O` (single isomer, unassigned) [Example 186, trifluoroacetate]: the Kpuu (unbound brain-to-plasma partition coefficient) in data set [4] amounted to 0.32. Further, the efflux ratio at 120 min, 1 μM in data set [5] was 10.8. The kinetic solubility at 24 h in data set [2] turned out to be 64.7 µg/mL. Besides, the IC50 in data set [3] was found to be 0.2 nM.

On to `CC(C)Oc1cc2nc(C34COC(C)(C3)C4)cn2cc1C(=O)Nc1cccn(C2CC2)c1=O` [Example 6, N-(1-cyclopropyl-2-oxo-1,2-dihydropyridin-3-yl)-7-isopropoxy-2-(1-methyl-2-oxabicyclo[2.1.1]hexan-4-yl)imidazo[1,2-a]pyridine-6-carboxamide], for which the Kpuu (unbound brain-to-plasma partition coefficient) in data set [4] stood at 0.27. Also, in data set [5], the efflux ratio at 120 min, 1 μM worked out at 7.9. Moreover, the solubility (kinetic) at 24 h in data set [2] is 58 µg/mL (≈ 129 µM). Also, 0.1 nM corresponded to half-maximal inhibition in data set [3] (IC50).

For `CC(C)Oc1cc2nc([C@]34CC[C@](C)(C3)OC4)cn2cc1C(=O)Nc1cccn(C2CC2)c1=O` (single isomer, unassigned) [Example 5], in data set [4], the Kpuu (unbound brain-to-plasma partition coefficient) was 0.38. For the same compound, the efflux ratio at 120 min, 1 μM in data set [5] amounted to 6.1. In data set [2], this compound yielded a solubility (kinetic) at 24 h of 32.9 µg/mL (≈ 71.1 µM). In addition, in data set [3], it took 0.1 nM to reach half-maximal inhibition (IC50).

Take `CC(C)Oc1cc2nc(C34COC(C)(C3)C4)cn2cc1C(=O)Nc1cccn(C)c1=O` [Comparator 1D, 7-isopropoxy-N-(1-methyl-2-oxo-1,2-dihydropyridin-3-yl)-2-(1-methyl-2-oxabicyclo[2.1.1]hexan-4-yl)imidazo[1,2-a]pyridine-6-carboxamide, reference compound]: the Kpuu (unbound brain-to-plasma partition coefficient) in data set [4] stood at 0.9. Also, in data set [5], the efflux ratio at 120 min, 1 μM is 8. Besides, the kinetic solubility at 24 h in data set [2] amounted to 63.2 µg/mL (≈ 150 µM). The midpoint of inhibition in data set [3], the IC50, lay at 0.6 nM.

Regarding `CC(C)Oc1cc2nc([C@@]34CC[C@@](CF)(C3)OC4)cn2cc1C(=O)Nc1cccn(C2CC2)c1=O` (single isomer, unassigned) [Example 7], in data set [4], the Kpuu (unbound brain-to-plasma partition coefficient) stood at 0.66. Also, the efflux ratio at 120 min, 1 μM in data set [5] was determined as 5. Besides, in data set [2], the kinetic solubility at 24 h turned out to be 79.2 µg/mL (≈ 165 µM). This compound showed an IC50 in data set [3] of 0.3 nM.

For the compound `CC(C)Oc1nc2nc(C34COC(C)(C3)C4)cn2cc1C(=O)Nc1cccn([C@H]2CC2(C)C)c1=O` (single isomer, unassigned) [Example 79], in data set [4], the Kpuu (unbound brain-to-plasma partition coefficient) was 0.89. In addition, the efflux ratio at 120 min, 1 μM in data set [5] was found to be 2.9. The compound also came in with a kinetic solubility at 24 h in data set [2] of 45.7 µg/mL (≈ 95.7 µM). Further, the IC50 in data set [3] was found to be 0.7 nM.

On to `CC(C)Oc1cc2nc([C@@]34CC[C@@](C)(C3)OC4)cn2cc1C(=O)Nc1ccn(C)n1` (single isomer, unassigned) [Comparator 3C, reference compound], for which the Kpuu (unbound brain-to-plasma partition coefficient) in data set [4] is 0.3. Further, the efflux ratio at 120 min, 1 μM in data set [5] worked out at 6.3. In data set [2], this compound returned a solubility (kinetic) at 24 h of 28.5 µg/mL (≈ 69.6 µM). This compound returned an IC50 in data set [3] of 2.3 nM.

Turning to `CC(C)Oc1cc2nc(C34CCC(C)(CC3)OC4)cn2cc1C(=O)Nc1cccn(C2CC2)c1=O` [Example 3, N-(1-cyclopropyl-2-oxo-1,2-dihydropyridin-3-yl)-7-isopropoxy-2-(1-methyl-2-oxabicyclo[2.2.2]octan-4-yl)imidazo[1,2-a]pyridine-6-carboxamide], the Kpuu (unbound brain-to-plasma partition coefficient) in data set [4] was determined as 0.25. The efflux ratio at 120 min, 1 μM in data set [5] was 2.9. Also, the solubility (kinetic) at 24 h in data set [2] stood at 36 µg/mL (≈ 75.5 µM). This compound displayed an IC50 in data set [3] of 0.2 nM.
